The source of these data is ChEMBL document CHEMBL5029171, “Dynamics of Post-Translational Modification Inspires Drug Design in the Kinase Family” (J Med Chem, 2021).

Assay [1] addresses Proto-oncogene tyrosine-protein kinase Src (Homo sapiens) (UniProt P12931). The assay can be described thus: Binding affinity to human recombinant flag-tag c-Src protein (86 to 536 residues) expressed in Escherichia coli BL21 (DE3) cells assessed as change in melting temperature at 1:20 ratio incubated for 25 mins by protein thermal shift assay.
Assay [2] has the same target. Briefly: Inhibition of human recombinant flag-tagged c-Src protein (86 to 536 residues) catalytic activity expressed in Escherichia coli BL21 (DE3) cells at 50 uM using biotinylated TK-substrate peptide as substrate preincubated for 1 hr followed by substrate addition and measured after 1 hr by HTRF assay relative to control. The note with it: time 2.0 hrs.
Assay [3] has the same target. Briefly: Binding affinity to human recombinant flag-tag c-Src protein (86 to 536 residues) expressed in Escherichia coli BL21 (DE3) cells assessed as change in melting temperature at 1:5 ratio incubated for 25 mins by protein thermal shift assay.
Assay [4] shares this target. The assay can be described thus: Binding affinity to human recombinant flag-tag c-Src protein (86 to 536 residues) expressed in Escherichia coli BL21 (DE3) cells assessed as change in melting temperature at 1:10 ratio incubated for 25 mins by protein thermal shift assay.

Some results are limits rather than exact numbers.

Chain of Proto-oncogene tyrosine-protein kinase Src (Homo sapiens) (P12931 2-536 limits assumed): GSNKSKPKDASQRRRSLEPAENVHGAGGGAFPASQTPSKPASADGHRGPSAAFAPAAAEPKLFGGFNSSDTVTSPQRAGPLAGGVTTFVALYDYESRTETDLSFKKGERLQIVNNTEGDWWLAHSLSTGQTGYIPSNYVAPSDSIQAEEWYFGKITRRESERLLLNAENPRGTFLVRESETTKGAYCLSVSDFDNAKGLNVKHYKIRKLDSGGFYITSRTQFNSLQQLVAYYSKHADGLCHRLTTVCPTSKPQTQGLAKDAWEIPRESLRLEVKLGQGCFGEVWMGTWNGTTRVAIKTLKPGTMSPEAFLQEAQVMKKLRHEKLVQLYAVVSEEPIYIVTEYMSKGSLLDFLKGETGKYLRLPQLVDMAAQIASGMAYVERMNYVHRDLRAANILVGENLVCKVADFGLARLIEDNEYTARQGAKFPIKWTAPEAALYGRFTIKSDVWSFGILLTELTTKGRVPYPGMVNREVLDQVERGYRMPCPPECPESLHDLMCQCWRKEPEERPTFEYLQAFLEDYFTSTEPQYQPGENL

As to `O=C(NC1CCCC1)C(c1ccc(F)cc1)N(C(=O)CCl)C1CC1` (stereo unspecified), the values for the ΔTm in assay [1], in assay [3] and in assay [4] were 3.3 °C, 1.5 °C and 2.56 °C, respectively. Further, the inhibition in assay [2] was greater than 60%.

In the case of `O=C(NC1CCCC1)C(c1ccc(Cl)cc1)N(Cc1cccs1)C(=O)CCl` (stereo unspecified), the inhibition in assay [2] was greater than 60%.

Regarding `COc1ccc(C(C(=O)NC2CCCC2)N(CCC2=CCCCC2)C(=O)CCl)cc1` (stereo unspecified), in assay [2], the inhibition is greater than 60%.
